Test results published in patent US20250249013A1, “COMBINATION METABOLIC-EPIGENETIC TREATMENT FOR EARLY LUNG CANCER” (THE REGENTS OF THE UNIVERSITY OF CALIFORNIA, priority 2022, published 2025).

Columns and labels:
A549 cells = experiment: EZH2 inhibition with GSK126 in low glucose, western blot; assay type: cell-based, human; conditions: GSK126 0.25 μM
Protocol: (§1) Human lung cancer A549 (CCL-185) and NCI-H358 (CRL-5807) cells lines were purchased from American Type Culture Collection (ATCC, Manassas, VA). Cells were maintained in culture according to manufacturer protocol using Roswell Park Memorial Institute (RPMI) 1640 medium (Corning, Cat. #10-040CV) supplemented with 10% FBS and 5% 1× Pen-Strep and kept in 37° C. and 5% of CO2. Murine 2953A cell line was established in our lab from a KP lung tumor by tissue dissociation. This cell line was maintained in culture in Dulbecco's modified Eagle Medium (DMEM) medium (Corning, Cat. #10-017CV) with 5% FBS and 5% 1× Pen-Strep.
(§2) All experiments in cell lines were performed in biological triplicate. Cells were seeded at same confluence and grown for 5 days (and for some experiments overnight or up to 9 days or 30 days, as indicated in the figures and text) in different concentration of glucose: high (20 mM), low (1 mM) and for some experiments medium (5 mM), as indicated. We used mediums with glutamine and without glucose: RPMI (Corning Cat. #10-043CV) for A549 and NCI-H358 cells, DMEM (ThermoScientific Cat. #11566025) for 2953A cells, supplemented with 10% FBS, 5% of 1× Pen-Strep and complemented with D-Glucose to the desired final concentration, as indicated in the figures.
(§3) For total protein extraction, cells were harvested, washed twice with ice-cold PBS-EDTA (0.5 mm EDTA), lysed using RIPA buffer (50 mM Tris-HCl pH 7.6, 150 mM NaCl, 0.1% SDS, 0.5% C24H39NaO4, 1% NP-40, 2 mm EDTA, 50 mm NaF) for 15 min on ice and centrifuged at 13,000 rpm for 30 min at +4° C. The resulting protein extracts were quantified using BCA protein assay followed by analysis by SDS-PAGE and Western blotting.
(§4) Histones was extracted from A549, NCI-H358 and 2953A cell lines using the Histone extraction kit (Abcam) according to manufacturer instructions.
(§5) SDS-PAGE and Western blotting analyses were performed using standard protocols. For antibodies information, see Reagents and Tools Table. Western blot images were detected by iBright Imaging Systems (Thermo Fisher Scientific). The protein detected was normalized to Actin or H3 total antibodies, this last in case of histonic extract. Each immunodetection derived from the same membrane was performed with the same exposure times according to the manufacture's antibody guidelines and was cropped only for presentation purposes; this is indicated by a dotted line.

NCI-H358 cells = experiment: as above; assay type: cell-based, human; conditions: GSK126 0.25 μM
Protocol: as §1, §2, §3, §4, §5

LUAD = conditions: genetically engineered murine models and patient-derived xenografts; cited from earlier work
[1] = A549, low glucose (1 mM) 5 days

Row | Compound | expression of FoxA2, western blot (A549 cells; [1]) | tri-methylation of H3K27, western blot (A549 cells; [1]) | EZH2 activity (A549 cells; A549, low glucose) | EZH2 activity (NCI-H358 cells) | expression of FoxA2, western blot (NCI-H358 cells) | tri-methylation of H3K27, western blot (NCI-H358 cells) | development of LUAD (LUAD) | survival (LUAD) | tumor growth (LUAD)
1 | CC[C@H](C)n1cc(C)c2c(C(=O)NCc3c(C)cc(C)[nH]c3=O)cc(-c3ccc(N4CCNCC4)nc3)cc21 [GSK126] | rescued | rescued | inhibited | inhibited | rescued | rescued |  |  | 
2 | Cc1ccc([C@@H]2O[C@H](CO)[C@@H](O)[C@H](O)[C@H]2O)cc1Cc1ccc(-c2ccc(F)cc2)s1 [canagliflozin] |  |  |  |  |  |  | significantly delays | prolongs survival | reduces tumor growth
